Measurements from patent US5179100A, “4,5-dihydropyrazolo[3,4-a]acridines” (Hoechst-Roussel Pharmaceuticals inc., priority 1992, dated 1993).
Where a name gives a salt, the structure may show the parent alone.

The molecules below were run on 2-phenyl-1,4-benzoquinone-induced writhing in mice (assay: 2-phenyl-1,4-benzoquinone-induced writhing test in mice (PQW Activity), analgesia). Details: 33 mg/kg, s.c. (reference compound).
Assay type: in vivo
Experimental: Exptl. […] The tests were conducted at the subcutaneous dose of 20 mg/kg.

SMILES	PQW Activity, % Inhibition
CC(=O)Oc1ccccc1C(=O)O [Aspirin, reference compound]	50%

Same assay, conditions: subcutaneous, 20 mg/kg

SMILES	PQW Activity, % Inhibition
Nc1c2c(nc3ccccc13)CCc1cn(CC(=O)O)nc1-2 [11-Amino-4,5-dihydro-2H-pyrazolo[3,4-a]acridine-2-acetic acid hydrochloride hemihydrate]	58%
Cn1cc2c(n1)-c1c(nc3ccccc3c1N)CC2 [11-Amino-4,5-dihydro-2-methyl-2H-pyrazolo[3,4-a]acridine]	54%
N#CCn1cc2c(n1)-c1c(nc3ccccc3c1N)CC2 [11-Amino-4,5-dihydro-2H-pyrazolo[3,4-a]acridine-2-acetonitrile]	47%
Nc1c2c(nc3ccccc13)CCc1cnn(-c3ccccc3)c1-2 [11-Amino-4,5-dihydro-1-phenyl-1H-pyrazolo[3,4-a]acridine]	48%
CN(C)CCn1cc2c(n1)-c1c(nc3ccccc3c1N)CC2 [11-Amino-4,5-dihydro-2-(2-dimethylaminoethyl)-2H-pyrazolo [3,4-a]acridine]	59%
CCn1cc2c(n1)-c1c(nc3ccccc3c1N)CC2 [11-Amino-4,5-dihydro-2-ethyl-2H-pyrazolo[3,4-a]acridine]	67%
